Entries after “also recorded” stand apart in the source; their conditions may differ.
What was measured:
[1] = tested on: Male Sprague Dawley (SD) rats; experiment: Cortagine-induced visceral hypersensitivity to colorectal distension; assay type: in vivo, rat
Text: Male Sprague Dawley (SD) rats (250-275 g, Harlan Labs, Indianapolis, Ind.) were kept under standard conditions of humidity and temperature and a 12-hour light/dark cycle (lights on 6.00 a.m.). Animals were group housed and had access to food ad libitum. Prior to the start of studies, animals were acclimatized to handling and administration of treatments (oral syringe feeding and subcutaneous injection). At the end of the experiments, animals were sacrificed by CO2 gas inhalation followed by thoracotomy or isoflurane anesthesia followed by decapitation with appropriate approved animal protocols.
On the day of the experiments, rats were injected intraperitoneally (IP) with cortagine (10 μg/kg, 0.8 ml/kg in DMSO/cremophor/isotonic saline (1:1:8 v:v:v). Cortagine, a selective corticotropin releasing factor receptor 1 (CRF1) agonist, prepared as described previously (Rivier et al. J. Med. Chem. 2007: 50:1668-1674), was stored in a powder form at −80° C. and prepared in sterile water (12.5 μg/ml) immediately before use. This dose had previously been established to show a significant increase in defecation, induction of diarrhea and increase in colonic motility, permeability and visceral pain in rats. (Larauche et al. Am. J. Physiol. Gastrointest. Liver Physiol. 2009: 297:G215-G227)
FAAH inhibitor compounds URB597 [3′-(aminocarbonyl)biphenyl-3-yl cyclohexyl carbamate], compound A and compound B were formulated as suspensions in DMSO/cremophor/isotonic saline (1:1:8 v:v:v). The concentration of the respective dosing FAAH inhibitor compound suspensions were 6 mg/ml for 30 mg/kg dose of compound A or compound B; 2 mg/ml for the 10 mg/kg dose of compound B; and 1.5 mg/ml for the 3 mg/kg dose of URB597. Compound A, compound B or vehicle treatment was administered to rats by per os (PO) route at dose-volume of 5 ml/kg. URB597 treatment was administered to rats by subcutaneous (SC) route at dose volume of 2 ml/kg. The vehicle for the PO route was DMSO/cremophor/isotonic saline (1:1:8 v:v:v). Vehicle (PO), URB597 (SC), compound A and compound B (PO) were administered to non-fasted rats, restrained by hand. The regimen of administration of URB597, compound A and compound B involved one delivery (PO or SC) performed 120 min before IP injection of cortagine.
Visceral pain was assessed using a non-invasive pressure transducer system referred to as “sensor balloon” as previously described (Larauche et al. Am. J. Physiol. Gastrointest. Liver Physiol. 2009: 297:G215-G227; Ness et al. Brain Res. 1988: 450:153-169). Briefly, in adult non-fasted SD rats, a 4-5 cm “sensor balloon” lubricated with surgical lubricant (Surgilube, Fougera, Melville) was inserted intra-anally under brief isoflurane anesthesia. The “sensor balloon” was positioned such that its distal end was 1 cm proximal to the anal verge and secured in place by tapping the balloon catheter to the tail. Rats were placed individually in Boolman's cage and allowed to recover from anesthesia and habituation. The colorectal procedure was performed using the Distender Series Ilir dual barostat (G&J Electronics Inc, Toronto, Ontario). The CRD protocol consisted of 2 CRD at 60 mmHg to unfold the balloon followed by 2 sets of CRD at 10, 20, 40 and 60 mmHg, 20 s duration, 4-min inter-stimulus interval. The intra-luminal colonic pressure (ICP) was recorded for 20 s before, during and after termination of CRD. […]

[2] = tested on: Female Wistar rats; experiment: Basal sensitivity to colorectal distension model; assay type: in vivo, rat; conditions: 3 mg/kg or 10 mg/kg subcutaneously; CRD measured 3 hrs 15 minutes later
[3] = 3 mg/kg SC 2 h before cortagine
[4] = 3 mg/kg SC 2 h before cortagine, n=11
[5] = 3 mg/kg SC 2 h before cortagine, normalized to baseline VMR at 60 mmHg

## NC(=O)c1cccc(-c2cccc(OC(=O)NC3CCCCC3)c2)c1 [URB597, 3′-(aminocarbonyl) biphenyl-3-yl cyclohexyl carbamate, reference compound]
[1]; [3]
  % hypersensitive rats at 40 mmHg: 55%
  rats with increased VMR over baseline between 0 and 50% at 60 mmHg: 18%
  rats with increased VMR over baseline between 51 and 100% at 60 mmHg: 9%
  rats with increased VMR over baseline over 101% at 60 mmHg: 9%
[1]; 3 mg/kg SC 2 h before cortagine 10 μg/kg IP, 40 and 60 mmHg
  effect on cortagine-induced visceral hypersensitivity to CRD: abolished the visceral hypersensitivity; also recorded: prevented the visceral hypersensitivity
[1]; [4]
  rats presenting a decrease in VMR compared to baseline at 60 mmHg: 64%
  rats presenting an increased VMR over baseline (% hypersensitive rats) at 60 mmHg: 36%
[1]; [5]
  VMR to CRD at 40 mmHg: 81.89±16.38%
  VMR to CRD at 60 mmHg: 97.62±20.02%
[1]; second trial, URB597 3 mg/kg SC 2 h before cortagine IP, n=7, p<0.001
  VMR versus vehicle/cortagine rats at 60 mmHg CRD: significant differences
[1]; summary statement referring to Example 3
  antihyperalgesic effects in the cortagine model of visceral pain: did exhibit antihyperalgesic effects
[2]
  basal sensitivity to colorectal distension (number of abdominal contractions): does not alter basal sensitivity

— US20130224151A1, “Use of FAAH Inhibitors for Treating Abdominal, Visceral and Pelvic Pain” (UNITED STATES OF AMERICA, priority 2010, published 2013)
